Assay results from patent US20110294736A1, “COMPOUNDS AND METHODS FOR THE TREATMENT OF AUTOIMMUNE AND INFLAMMATORY DISEASE” (THE PROVOST, FELLOWS AND SCHOLARS OF THE HOLY AND UNDIVIDED …, priority 2008, published 2011).

Columns and labels:
[1] = test system: Peritoneal exudate cells (PECs); experiment: TLR agonist induced cytokines (ELISA) of peritoneal exudate cells from treated mice; assay type: in vivo; conditions: TriDAP 100 μg/mouse/day i.p. 5 days vs PBS; LPS, CpG or Pam3Csk; 24 hours
Description: Mice were treated with either PBS or TriDAP (100 μg/mouse/day i.p.) for 5 days. Peritoneal exudate cells (PECs; 1×10^6/ml) were stimulated with medium alone (control), or with a Toll-like Receptor agonist selected from the following: the TLR4 agonist LPS (lipopolysaccharide) (100 ng/ml), the TLR9 agonist CpG (5 μg/ml), or the TL2 agonist Pam3Csk (500 ng/ml). Supernatants were collected after 24 hours and cytokine concentrations were quantified by ELISA.

[2] = test system: EBI3 mRNA; experiment: EBI3 mRNA (real time PCR) in inguinal lymph nodes 72 hours post EAE induction; assay type: in vivo; conditions: Tri-DAP 100 μg/mouse days 0, 1, 2, vs control mice
Description: EAE was induced in C57BL/6 mice by subcutaneous injection with 150 μg of MOG35-55 in CFA supplemented with 4 mg/ml H37 Ra M. tuberculosis on day 0. All mice were injected i.p with PT on days 0 and 2. One group of mice were untreated and the second group were given Tri-DAP (100 μg/mouse) given on day 0 in MOG/CFA emulsion and again on days 1 and 2. Three mice from each group were sacrificed 72 hours post EAE induction. The inguinal lymph nodes were removed and collected in Trizol. EBI3 mRNA was evaluated by real time PCR normalized to 18S rRNA. Data are shown as fold induction over naïve C57BL/6 inguinal lymph nodes (FIG. 7).

[3] = test system: Dendritic cells cultured from human PBMC; experiment: IL-27 and IL-10 ELISA in dendritic cells cultured from human PBMC; assay type: cell-based; conditions: 24 hours
Description: Dendritic cells cultured from human PBMC with IL-4 and GM-CSF were stimulated with TriDap (100 μg/ml), LPS (10 or 100 ng/ml), LPS and TriDAP or medium only. Supernatants were collected after 24 hours and IL-27 and IL-10 concentrations were quantified by ELISA. **P<0.01, ***P<0.001, with versus without TriDAP.

[4] = test system: NF-κB; conditions: higher than iE-DAP; previously shown; cited from earlier work
[5] = test system: EAE in SJL mice; experiment: SJL mouse relapsing-remitting EAE model (PLP/CFA, PT), clinical score; assay type: in vivo; conditions: TriDAP 100 μg/mouse every 2 days from day 12, vs PBS, mean of 5-6 mice per group
Excerpt: EAE (experimental autoimmune encephalomyelitis) was induced in SJL mice by immunization with […] (PLP) in complete Freund's adjuvant (CFA) followed by Bordetella pertussis toxin (PT). SJL mice were developed by James Lambert at The Jackson Laboratory in 1955 from three different sources of Swiss Webster mice. The strain is characterized by its susceptibility to experimental autoimmune encephalomyelitis (EAE) for multiple sclerosis research, and therefore provides an improved model (over the MOG (myelin oligodendrocyte glycoprotein) model) for assessing the therapeutic potential of compounds. Mice were treated with PBS (control) or TriDAP (100 μg/mouse) every 2 days from day 12. Clinical scores were assessed daily and body weights were recorded. Disease severity was graded as follows: grade 0: normal, grade 1: limp tail, grade 2: wobbly gait; grade 3: hind limb weakness; grade 4: hind limb paralysis; grade 5: tetraparalysis/death. † indicates control mice were sacrificed due to severity of EAE disease.

[6] = test system: IL-17-expressing and IFN-γ-expressing T cells in the brains of mice with EAE; experiment: Intracellular IFN-γ and IL-17 staining (flow cytometry) of brain mononuclear cells of EAE mice; assay type: in vivo; conditions: CD3+, CD3+ CD4+ and CD3+ CD4− cells; 12 days post EAE induction; PMA/ionomycin
Description: Mononuclear cells were isolated from the brains of control EAE or Tri-DAP treated EAE mice 12 days post EAE induction. Cells were restimulated overnight with PMA/ionomycin and incubated with Brefeldin A. Cells were stained with anti-CD3 (FIG. 4), or anti-CD3 and anti-CD4 (FIGS. 5 and 6). Cells were then fixed and permeabilized, stained intracellularly with anti-IFN-γ and anti-IL-17 and analysed by flow cytometry.

[7] = test system: MOG-specific IL-17, IFN-γ and TNF-α response of lymph node cells; experiment: MOG-specific cytokines (ELISA) of restimulated lymph node cells after EAE induction; assay type: in vivo, mice; conditions: lymph node cells day 5
Description: EAE was induced in C57BL/6 mice by s.c injection with 150 μg of MOG35-55 in CFA supplemented with 4 mg/ml H37 Ra M. tuberculosis on day 0. All mice were injected i.p with PT on days 0 and 2. One group of mice were untreated, the second group were given 100 μg Tri-DAP 6 hours before immunization and a third group were given Tri-DAP (100 μg/mouse) on day 0 in MOG/CFA emulsion and again on days 1, 2 and 4. Mice were sacrificed on day 5 and lymph nodes cells were stimulated with MOG peptide (Myelin oligodendrocyte glycoprotein) (20-100 μg/ml) or as negative and positive controls, medium only or PMA and anti-CD3 respectively. After 72 hours supernatants were removed and analyzed for IL-17, TNF-α (TNF-alpha) and IFN-γ (interferon gamma) by ELISA.

[8] = TriDap 100 μg/ml with LPS 10 or 100 ng/ml

C[C@H](N)C(=O)N[C@H](CCC(=O)N[C@@H](CCC[C@@H](N)C(=O)O)C(=O)O)C(=O)O [Tri-DAP, L-alanyl-γ-D-glutamyl-meso-diaminopimelic acid]
IL-10 secreted by PEC after re-stimulation with TLR agonists [1]: higher concentrations | TGF-beta secreted by PEC after re-stimulation with TLR agonists [1]: higher concentrations | EBI3 gene expression in inguinal lymph nodes [2]: strong fold increase | IL-27 expression by human derived dendritic cells ([3]; TriDAP 100 μg/ml alone, without TLR agonist): express IL-27 | IL-10 production by human dendritic cells ([3]; TriDap 100 μg/ml alone): Induces | IL-27 expression on co-stimulation with a Toll-like Receptor agonist [3, 8]: significant enhanced | TLR-induced IL-10 production by human dendritic cells [3, 8]: Enhances | ability to activate NF-κB relative to iE-DAP [4]: 3 fold | clinical scores [5]: reduction | IFN-γ production by brain T cells [6]: suppressed | IL-17 production by brain T cells [6]: suppressed | MOG-specific T cell responses (IL-17, IFN-γ, TNF-α) ([7]; 100 μg Tri-DAP 6 hours before immunization, vs control EAE mice): significantly reduced | MOG-specific T cell responses (IL-17, IFN-γ, TNF-α) ([7]; Tri-DAP 100 μg/mouse on days 0, 1, 2 and 4): no detectable
